Assay [1] deals with RKO. Put plainly: Induction of morphological changes in human RKO cells assessed as cell deformation at 0.05 to 0.2 uM incubated for 24 hrs by Giemsa staining based micrscopic analysis. As to conditions: dose 0.05-0.2 µM. The class given is functional.
The target in assay [2] is T1, DNA topoisomerase 1 (Homo sapiens) (UniProt P11387).
T1 sequence (whole entry): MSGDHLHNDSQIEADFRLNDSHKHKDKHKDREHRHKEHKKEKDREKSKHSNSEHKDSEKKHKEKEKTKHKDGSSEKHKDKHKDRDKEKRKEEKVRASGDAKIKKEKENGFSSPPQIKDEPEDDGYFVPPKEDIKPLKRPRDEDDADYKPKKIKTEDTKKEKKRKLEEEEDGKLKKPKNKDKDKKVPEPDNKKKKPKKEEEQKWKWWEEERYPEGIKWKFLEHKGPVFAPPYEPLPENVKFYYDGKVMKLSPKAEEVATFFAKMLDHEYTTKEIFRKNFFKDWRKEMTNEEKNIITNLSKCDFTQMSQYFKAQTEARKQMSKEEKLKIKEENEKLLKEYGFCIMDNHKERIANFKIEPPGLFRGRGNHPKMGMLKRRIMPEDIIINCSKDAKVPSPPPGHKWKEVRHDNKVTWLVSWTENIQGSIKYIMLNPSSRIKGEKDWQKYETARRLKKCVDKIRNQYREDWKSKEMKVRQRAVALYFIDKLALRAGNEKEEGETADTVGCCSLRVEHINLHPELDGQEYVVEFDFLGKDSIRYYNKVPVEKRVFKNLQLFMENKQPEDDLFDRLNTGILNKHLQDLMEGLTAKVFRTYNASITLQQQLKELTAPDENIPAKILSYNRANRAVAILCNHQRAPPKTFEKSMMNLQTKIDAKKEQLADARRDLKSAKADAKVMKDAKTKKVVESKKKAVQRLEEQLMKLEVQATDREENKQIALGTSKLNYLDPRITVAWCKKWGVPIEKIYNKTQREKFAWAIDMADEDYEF
Put plainly: Inhibition of topoisomerase 1 (unknown origin) at 50 uM using PBR322 DNA as substrate incubated for 30 mins by agarose gel electrophoresis relative to control.

Assay [3] is described as follows: Induction of cell cycle arrest in human RKO cells assessed as accumulation of cells at G2/M phase at 0.05 uM incubated for 24 hrs by propidium iodide staining based flow cytometry analysis. The class given is functional.
The subject of assay [4] is MGC-803. Put plainly: Induction of cell cycle arrest in human MGC-803 cells assessed as accumulation of cells at G2/M phase at 0.05 to 0.2 uM incubated for 24 hrs by propidium iodide staining based flow cytometry analysis. The assay is classed as functional. To be noted: dose 0.05-0.2 µM. (In general: In flow cytometry, cells or beads pass a laser one at a time.)
Assay [5] deals with MGC-803. Put plainly: Inhibition of colony formation in human MGC-803 cells incubated for 7 days by crystal violet staining based assay. The class given is functional, cell-based. To be noted: dose 10-90 nM, time 7.0 day.
The subject of assay [6] is MGC-803. The experiment in a line: Antiproliferative activity against human MGC-803 cells assessed as reduction in cell viability incubated for 72 hrs by MTT assay. The class given is functional, cell-based. As to conditions: MGC-803, 72 h. (Tetrazolium dyes change colour on reduction, which living cells bring about.)
The target in another assay is Tubulin (Homo sapiens) (UniProt P68371+Q9H4B7+P0DPH7+P68366+Q13509+Q71U36+P04350+Q3ZCM7+P07437+P68363+Q9BQE3+Q6PEY2+Q13885+Q9BVA1+Q9BUF5). The experiment in a line: Induction of microtubule disruption in human RKO cells assessed as atrophied nucleus at 50 to 200 nM incubated for 24 hrs by laser confocal microscopic analysis. The class given is cell-based. As to conditions: dose 50-200 nM.

Assay [7] deals with RKO. The experiment in a line: Inhibition of colony formation in human RKO cells incubated for 7 days by crystal violet staining based assay. The class given is functional, cell-based. To be noted: dose 10-90 nM, time 7.0 day.
Assay [8] has as its system RKO. Put plainly: Induction of apoptosis in human RKO cells assessed as early apoptotic cells at 0.2 uM incubated for 24 hrs by propidium iodide and Annexin V/FITC staining based flow cytometry assay (reference value: 0.16%). The class given is functional.
Assay [9] has as its system RKO. The experiment in a line: Inhibition of colony formation in human RKO cells at 90 nM incubated for 7 days by crystal violet staining based assay. The assay is classed as functional, cell-based. To be noted: time 7.0 day.
Assay [10] deals with RKO. The experiment in a line: Induction of apoptosis in human RKO cells assessed as late apoptotic cells at 0.05 uM incubated for 24 hrs by propidium iodide and Annexin V/FITC staining based flow cytometry assay (reference value: 0.50%). The class given is functional.
Assay [11] concerns MGC-803. Put plainly: Induction of apoptosis in human MGC-803 cells assessed as late apoptotic cells at 0.05 uM incubated for 24 hrs by propidium iodide and Annexin V/FITC staining based flow cytometry assay (reference value: 4.10%). The assay is classed as functional.
Assay [12] deals with RKO. Put plainly: Induction of cell cycle arrest in human RKO cells assessed as accumulation of cells at G2/M phase at 0.05 to 0.2 uM incubated for 24 hrs by propidium iodide staining based flow cytometry analysis. As to conditions: dose 0.05-0.2 µM. The assay is classed as functional.
For assay [13], the system named is RKO. The experiment in a line: Induction of apoptosis in human RKO cells assessed as early apoptotic cells at 0.1 uM incubated for 24 hrs by propidium iodide and Annexin V/FITC staining based flow cytometry assay (reference value: 0.16%). The class given is functional.
The test system of assay [14] is MGC-803. The experiment in a line: Induction of morphological changes in human MGC-803 cells assessed as formation of apoptotic bodies at 0.05 to 0.2 uM incubated for 24 hrs by Giemsa staining based micrscopic analysis. The class given is functional, cell-based. As to conditions: dose 0.05-0.2 µM.
Assay [15] has as its system MGC-803. The experiment in a line: Inhibition of cell migration in human MGC-803 cells assessed as reduction in tumor wound healing incubated for 24 hrs by microscopic analysis. The assay is classed as functional, cell-based. To be noted: dose 10-90 nM.

Molecules are shown by their SMILES. Activity calls are given as the source filed them. The calls are words filed in the database; no cut-off is given here.

Usually inhibition stands for the share of the control response that was lost under treatment. The IC50 is the midpoint of a concentration-inhibition curve. As for `CCCN1c2ccccc2C(=O)N2CCc3c([nH]c4ccccc34)C21` (stereo unspecified), the outcome with RKO [1], in the assay with MGC-803 [4], on Tubulin (Homo sapiens), with RKO [12] and with MGC-803 [14] was Active. Besides, the inhibition in [2] is 58.3%; in the assay with MGC-803 [5] it was “Dose-Dependent Effect”; in the assay on RKO [7] it was “Dose-Dependent Effect”; in the assay with MGC-803 [15], “Dose-Dependent Effect”. The Activity in assay [3] is recorded as 40.55%; in the assay on RKO [8] it was 14.35%; in the assay on RKO [10], 21.45%; with MGC-803 [11], 6.84%; with RKO [13] it was 14.52%. Moreover, the IC50 in the assay on MGC-803 [6] came to 90 nM. In addition, in the assay with RKO [9], the inhibition result was “Active”.

The record behind these values is ChEMBL document CHEMBL5321222, “N(14)-substituted evodiamine derivatives as dual topoisomerase 1/tubulin-Inhibiting anti-gastrointestinal tumor agents” (Eur J Med Chem, 2023).
